Results published in ChEMBL document CHEMBL4818987, “Recent advances of podophyllotoxin/epipodophyllotoxin hybrids in anticancer activity, mode of action, and structure-activity relationship: An update (2010-2020)” (Eur J Med Chem, 2020).

What was measured:
A549 [1] = assay: Antiproliferative activity against human A549 cells incubated for 48 hrs by MTT assay; assay type: functional, cell-based; conditions: A549, 48 h
MCF7 [2] = assay: Antiproliferative activity against human MCF7 cells incubated for 48 hrs by MTT assay; assay type: functional, cell-based; conditions: MCF7, 48 h
BGC-823 [3] = assay: Antiproliferative activity against human BGC-823 cells incubated for 48 hrs by MTT assay; assay type: functional, cell-based; conditions: BGC-823, 48 h
HeLa [4] = assay: Potency index, ratio of etoposide IC50 to test compound IC50 for antiproliferative activity against human HeLa cells; assay type: functional
A549 [5] = assay: Potency index, ratio of etoposide IC50 to test compound IC50 for antiproliferative activity against human A549 cells; assay type: functional
MCF7 [6] = assay: Potency index, ratio of etoposide IC50 to test compound IC50 for antiproliferative activity against human MCF7 cells; assay type: functional
BGC-823 [7] = assay: Potency index, ratio of etoposide IC50 to test compound IC50 for antiproliferative activity against human BGC-823 cells; assay type: functional
Huh-7 [8] = assay: Antiproliferative activity against human Huh7 cells incubated for 48 hrs by MTT assay; assay type: functional, cell-based; conditions: Huh-7, 48 h
Huh-7 [9] = assay: Potency index, ratio of etoposide IC50 to test compound IC50 for antiproliferative activity against human Huh-7 cells; assay type: functional
K562 [10] = assay: Cytotoxicity against human K562 cells by MTT assay; assay type: functional, cell-based
K562/A02 = assay: Cytotoxicity against human K562/A02 cells by MTT assay; assay type: functional, cell-based
HeLa [11] = assay: Antiproliferative activity against human HeLa cells incubated for 48 hrs by MTT assay; assay type: functional, cell-based
K562 [12] = assay: Antiproliferative activity against human K562 cells; assay type: functional, cell-based
HCT-116 = assay: Antiproliferative activity against human HCT116 cells; assay type: functional, cell-based
SMMC-7721 = assay: Antiproliferative activity against human SMMC-7721 cells; assay type: functional, cell-based
LNCaP = assay: Antiproliferative activity against human LNCaP cells; assay type: functional, cell-based
SK-BR-3 = assay: Antiproliferative activity against human SK-BR-3 cells; assay type: functional, cell-based
U-251 = assay: Antiproliferative activity against human U251 cells; assay type: functional, cell-based
K562/Adr = assay: Antiproliferative activity against human K562/ADR cells; assay type: functional, cell-based
HFF = assay: Cytotoxicity against human HFF cells; assay type: cell-based
L02 [13] = assay: Cytotoxicity against human HL7702 cells; assay type: cell-based
[14] = Selectivity index, ratio of IC50 for human HFF cells to IC50 for human A549 cells; assay type: toxicity; conditions: pooled result: one value given for 20 cell lines, strains, targets or settings, read-out: Ratio IC50
A549 [15] = assay: Antiproliferative activity against human A549 cells incubated for 24 hrs by MTT assay; assay type: functional, cell-based; conditions: A549, 24 h
HeLa [16] = assay: Antiproliferative activity against human HeLa cells incubated for 24 hrs by MTT assay; assay type: functional, cell-based
[17] = Selectivity ratio of IC50 for human L02 cells to IC50 for human Calu-1 cells; assay type: toxicity; conditions: L02 cells / Calu-1 cells, read-out: Ratio IC50
[18] = Selectivity ratio of IC50 for human L02 cells to IC50 for human HeLa cells; assay type: toxicity; conditions: read-out: Ratio IC50
[19] = Selectivity ratio of IC50 for African green monkey Vero cells to IC50 for human A549 cells; assay type: toxicity; conditions: read-out: Ratio IC50
[20] = Selectivity ratio of IC50 for African green monkey Vero cells to IC50 for human Calu-1 cells; assay type: toxicity; conditions: Vero cells / Calu-1 cells, read-out: Ratio IC50
Calu-1 = assay: Antiproliferative activity against human Calu-1 cells incubated for 24 hrs by MTT assay; assay type: functional, cell-based; conditions: Calu-1, 24 h
[21] = Selectivity ratio of IC50 for African green monkey Vero cells to IC50 for human HeLa cells; assay type: toxicity; conditions: read-out: Ratio IC50
Vero = assay: Cytotoxicity against African green monkey Vero cells; assay type: cell-based; conditions: Chlorocebus sabaeus
L02 [22] = assay: Cytotoxicity against human L02 cells; assay type: cell-based
[23] = Selectivity ratio of IC50 for human L02 cells to IC50 for human A549 cells; assay type: toxicity; conditions: read-out: Ratio IC50
[24] = Cytotoxicity against human MUM-2B cells incubated for 72 hrs by CCK8 assay; assay type: functional, cell-based
[25] = Cytotoxicity against human C918 cells incubated for 72 hrs by CCK8 assay; assay type: functional, cell-based; conditions: C918, 72 h
HeLa [26] = assay: Cytotoxicity against human HeLa cells by MTT assay; assay type: functional, cell-based
[27] = Resistance index, ratio of IC50 for human K562/AO2 cells to IC50 for human K562 cells; assay type: functional

Compound `COc1cc([C@@H]2c3cc4c(cc3[C@@H](Nc3ncccc3F)[C@H]3COC(=O)[C@H]23)OCO4)cc(OC)c1O` has an IC50 (A549 [1]) of 0.06 µM, an IC50 (MCF7 [2]) of 0.06 µM and an IC50 (BGC-823 [3]) of 0.06 µM. The “Ratio IC50” value (HeLa [4]) was 3.3, the “Ratio IC50” value (A549 [5]) was 3.3 and the “Ratio IC50” value (MCF7 [6]) was 3.3. For the same compound, the “Ratio IC50” value (BGC-823 [7]) was 3.3, the IC50 (Huh-7 [8]) was 0.06 µM and the “Ratio IC50” value (Huh-7 [9]) was 3.3.
`COc1cc([C@@H]2c3cc4c(cc3[C@@H](NC(=O)C(=O)c3c[nH]c5ccc(C(=O)NC(C)C)cc35)[C@H]3COC(=O)[C@H]23)OCO4)cc(OC)c1OC` gave an IC50 (K562 [10]) of 1.27 µM and an IC50 (K562/A02) of 1.27 µM.
For `COc1cc([C@@H]2c3cc4c(cc3[C@@H](Nc3ncccc3F)[C@H]3COC(=O)[C@H]23)OCO4)cc(OC)c1OC`, the IC50 (HeLa [11]) was 0.06 µM, the IC50 (A549 [1]) was 0.06 µM and the IC50 (MCF7 [2]) was 0.06 µM. The IC50 (BGC-823 [3]) was 0.06 µM, the “Ratio IC50” value (HeLa [4]) was 3.3 and the “Ratio IC50” value (A549 [5]) was 3.3. For the same compound, the “Ratio IC50” value (MCF7 [6]) was 3.3, the “Ratio IC50” value (BGC-823 [7]) was 3.3 and the IC50 (Huh-7 [8]) was 0.06 µM. For the same compound, the “Ratio IC50” value (Huh-7 [9]) was 3.3.
`COC(=O)c1ccc(-c2cn(CC(=O)O[C@H]3c4cc5c(cc4[C@@H](c4cc(OC)c(OC)c(OC)c4)[C@H]4C(=O)OC[C@@H]43)OCO5)nn2)cc1` gave an IC50 (K562 [12]) of 0.0196 µM, an IC50 (HCT-116) of 0.0196 µM and an IC50 (SMMC-7721) of 0.0196 µM. For the same compound, the IC50 (LNCaP) was 0.0196 µM, the IC50 (SK-BR-3) was 0.0196 µM and the IC50 (U-251) was 0.0196 µM. For the same compound, the IC50 (K562/Adr) was 0.0196 µM, the IC50 (HFF) was 0.195 µM and the IC50 (L02 [13]) was 0.565 µM. It also gave a selectivity ratio [14] of 3.5.
In the case of `COc1cc([C@@H]2c3cc4c(cc3[C@H](OC(=O)CCCCC3CCSC(c5ccc(C(F)(F)F)cc5)S3)[C@H]3COC(=O)[C@H]23)OCO4)cc(OC)c1OC` (some centres undefined), the IC50 (A549 [15]) is reported as 2.68 µM, the IC50 (HeLa [16]) is reported as 2.68 µM and the selectivity ratio [17] is reported as no less than 9.7. For the same compound, the selectivity ratio [18] was no less than 9.7, the selectivity ratio [19] was no less than 9.7 and the selectivity ratio [20] was no less than 9.7. It also gave an IC50 (Calu-1) of 2.68 µM, a selectivity ratio [21] of no less than 9.7 and an IC50 (Vero) greater than 93.8 µM. The IC50 (L02 [22]) was greater than 93.8 µM and the selectivity ratio [23] was no less than 9.7.
With `COc1cc(/C=C/c2ccc(OCCC(=O)O[C@H]3c4cc5c(cc4[C@@H](c4cc(OC)c(OC)c(OC)c4)[C@H]4C(=O)OC[C@@H]43)OCO5)cc2)cc(OC)c1` the IC50 [24] was 0.081 µM and the IC50 [25] was 0.081 µM.
`COc1cc([C@@H]2c3cc4c(cc3[C@H](OC(=O)CCCCC3CCSC(c5cccc(C(F)(F)F)c5)S3)[C@H]3COC(=O)[C@H]23)OCO4)cc(OC)c1OC` (some centres undefined) gave an IC50 (A549 [15]) of 2.68 µM, an IC50 (HeLa [16]) of 2.68 µM and a selectivity ratio [17] of no less than 9.7. The selectivity ratio [18] was no less than 9.7, the selectivity ratio [19] was no less than 9.7 and the selectivity ratio [20] was no less than 9.7. It also gave an IC50 (Calu-1) of 2.68 µM, a selectivity ratio [21] of no less than 9.7 and an IC50 (Vero) greater than 93.8 µM. The IC50 (L02 [22]) was greater than 93.8 µM and the selectivity ratio [23] was no less than 9.7.
With `COc1cc([C@@H]2c3cc4c(cc3[C@@H](c3c[nH]c5ccc(OCc6ccc(C(C)(C)C)cc6)cc35)[C@H]3COC(=O)[C@H]23)OCO4)cc(OC)c1OC` the IC50 (HeLa [26]) was greater than 0.26 µM, the IC50 (K562 [10]) was greater than 0.26 µM and the IC50 (K562/A02) was 0.289 µM. For the same compound, the “Ratio IC50” value [27] was 0.004.
